Measured values as given in the NIST ThermoML archive (doi:10.1016/j.jct.2016.05.006).
Where “and” joins values, the source holds several entries; their conditions need not be identical. Equal values may be shown once.

Conditions: Liquid, Vibrating tube method

OCC(O)CO [glycerol]
mass density
Conditions	298.15 K	303.15 K	308.15 K	313.15 K	318.15 K	328.15 K	338.15 K	348.15 K
100 kPa	1258.4 kg/m3 and 1259.1 kg/m3	1255.7 kg/m3	1252.9 kg/m3 and 1253 kg/m3	1250.1 kg/m3	1247 kg/m3	1240.9 kg/m3	1234.8 kg/m3	1228.7 kg/m3
5000 kPa	1260.7 kg/m3 and 1260.6 kg/m3	1257.8 kg/m3	1254.9 kg/m3 and 1254.6 kg/m3	1251.8 kg/m3	1248.5 kg/m3	1242.5 kg/m3	1236.4 kg/m3	1230.4 kg/m3
10000 kPa	1262.3 kg/m3 and 1262.1 kg/m3	1259.3 kg/m3	1256.3 kg/m3 and 1256.1 kg/m3	1253.4 kg/m3	1250.1 kg/m3	1244.1 kg/m3	1238.1 kg/m3	1232.1 kg/m3
15000 kPa	1263.7 kg/m3 and 1263.6 kg/m3	1260.8 kg/m3	1257.9 kg/m3 and 1257.6 kg/m3	1254.9 kg/m3	1251.6 kg/m3	1245.6 kg/m3	1239.6 kg/m3	1233.6 kg/m3
20000 kPa	1265.2 kg/m3 and 1265.1 kg/m3	1262.3 kg/m3	1259.4 kg/m3 and 1259.1 kg/m3	1256.4 kg/m3	1253.2 kg/m3	1247.2 kg/m3	1241.3 kg/m3	1235.3 kg/m3
25000 kPa	1266.6 kg/m3 and 1266.5 kg/m3	1263.7 kg/m3	1260.8 kg/m3 and 1260.6 kg/m3	1257.9 kg/m3	1254.7 kg/m3	1248.8 kg/m3	1242.9 kg/m3	1237.1 kg/m3
